SMILES strings stand for the structures.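 Five compound concentrations were applied to cells in 96-well plates for 48 hours; endpoints were derived by simple linear interpolation of the resulting dose-response curve. TGI denotes the concentration required for complete inhibition of growth.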

Test systems include COLO 205 colon; HOP-92 NSCLC; IGROV1 ovarian; MALME-3M melanoma; MDA-MB-435; NCI/ADR-RES ovarian; RXF 393 renal; SNB-75 CNS; SR leukemia; HOP-62 NSCLC.
Experiment in all cases: NCI tumour cell line growth inhibition, 48 h

With `C=C1c2nc3ccccc3n2C=C(c2ccc(Cl)cc2)N1c1ccc(OC)cc1`, the TGI in the experiment on COLO 205 colon is above 100 µM; with HOP-92 NSCLC, 43.6 µM; with IGROV1 ovarian it was 26.1 µM; in the experiment on MALME-3M melanoma, 13.3 µM; in the experiment with MDA-MB-435, 30.5 µM; in the experiment on NCI/ADR-RES ovarian, 14 µM. For the same molecule, the figures for the TGI in the experiment with RXF 393 renal, in the experiment on SNB-75 CNS and in the experiment with SR leukemia were 21.6 µM, 7.13 µM and above 100 µM, respectively.

Regarding `CCOC(=O)C1CCC(=O)N1C(=O)c1ccccc1` (centres undefined), the TGI in the experiment on HOP-62 NSCLC, in the experiment with HOP-92 NSCLC, in the experiment on IGROV1 ovarian, in the experiment on MALME-3M melanoma, with MDA-MB-435 and in the experiment on NCI/ADR-RES ovarian was above 100 µM in each case. In addition, the TGI in the experiment with RXF 393 renal and with SR leukemia was above 100 µM throughout.

Turning to `COC(=O)[C@H](Cc1ccccc1)NC(=O)CCCCCCC(=O)NO`, the TGI in the experiment with COLO 205 colon was above 100 µM; in the experiment on HOP-92 NSCLC, 71.9 µM; in the experiment on IGROV1 ovarian, 57.5 µM; in the experiment with MALME-3M melanoma it was 38.6 µM; with MDA-MB-435, 63.8 µM; in the experiment on NCI/ADR-RES ovarian, above 100 µM. In addition, the TGI in the experiment on RXF 393 renal is 32.3 µM; with SR leukemia, above 100 µM.

On to `COc1ccc(N(C(=O)Nc2ccc(Cl)c(Cl)c2)C2c3cccn3C(=O)N2c2ccc(Cl)c(Cl)c2)cc1` (centres undefined), for which the TGI with COLO 205 colon, with HOP-92 NSCLC, in the experiment on IGROV1 ovarian, in the experiment on MALME-3M melanoma, with MDA-MB-435 and with NCI/ADR-RES ovarian was above 100 µM in each case. Further, the TGI with RXF 393 renal and with SR leukemia was above 100 µM in each case.

Regarding `Nc1nn2c(=O)c3ccccc3nc2s1`, the TGI in the experiment on COLO 205 colon, with HOP-62 NSCLC, in the experiment on HOP-92 NSCLC, in the experiment on IGROV1 ovarian, with MDA-MB-435 and in the experiment with NCI/ADR-RES ovarian was above 100 µM throughout. The TGI was above 100 µM in the experiment with RXF 393 renal, above 100 µM with SNB-75 CNS and 44.7 µM with SR leukemia.

As to `COc1nc(C#CC(C)(C)C)nc(OC)n1`, the TGI is above 100 µM with COLO 205 colon; above 100 µM in the experiment with HOP-62 NSCLC; above 100 µM with IGROV1 ovarian; 46.9 µM in the experiment with MALME-3M melanoma; 84.5 µM in the experiment with MDA-MB-435; 46.1 µM in the experiment with NCI/ADR-RES ovarian. Moreover, the TGI in the experiment on RXF 393 renal is above 100 µM; in the experiment on SNB-75 CNS it was above 100 µM; in the experiment on SR leukemia, 79.3 µM.

As to `CO[C@@H]1O[C@H](C(=O)c2ccccc2)[C@H]2OC(C)(C)O[C@@H]12`, the TGI in the experiment with COLO 205 colon, with HOP-62 NSCLC, in the experiment on HOP-92 NSCLC, in the experiment on IGROV1 ovarian, in the experiment on MDA-MB-435 and with NCI/ADR-RES ovarian was above 100 µM each time. Besides, the TGI with RXF 393 renal, with SNB-75 CNS and with SR leukemia was above 100 µM throughout.

For the molecule `O=c1[nH]c(=O)n(C2CC(O)C(CO)O2)cc1OCc1ccccc1` (centres undefined), the TGI in the experiment with COLO 205 colon, in the experiment with HOP-62 NSCLC, in the experiment with IGROV1 ovarian, in the experiment with MALME-3M melanoma, in the experiment on MDA-MB-435 and in the experiment with NCI/ADR-RES ovarian was above 100 µM each time. Moreover, the TGI with RXF 393 renal, with SNB-75 CNS and with SR leukemia was above 100 µM throughout.

As to `O=c1cc(-c2ccccc2)oc2c(-c3cc(Cl)cc4c(=O)cc(-c5ccccc5)oc34)cc(Cl)cc12`, the TGI is above 100 µM in the experiment with COLO 205 colon; above 100 µM in the experiment with HOP-62 NSCLC; above 100 µM in the experiment on IGROV1 ovarian; 75.8 µM in the experiment with MALME-3M melanoma; above 100 µM with MDA-MB-435; above 100 µM in the experiment with NCI/ADR-RES ovarian. The TGI in the experiment with RXF 393 renal was above 100 µM; with SNB-75 CNS it was 94 µM; in the experiment with SR leukemia it was above 100 µM.

With `O=C1NCN(c2ccccc2)C12CCN(CCCN1CCN(CCOC(c3ccc(F)cc3)c3ccc(F)cc3)CC1)CC2`, the TGI in the experiment with COLO 205 colon came out at 3.18 µM; in the experiment on HOP-62 NSCLC, 3.81 µM; with HOP-92 NSCLC, 3.9 µM; with IGROV1 ovarian it was 4.24 µM; in the experiment with MALME-3M melanoma, 2.68 µM; with MDA-MB-435, 3.26 µM. Also, the TGI with NCI/ADR-RES ovarian worked out at 26.7 µM; in the experiment with RXF 393 renal it was 2.25 µM; with SR leukemia, 6.67 µM.

For the molecule `O=C1CSC2=NC3=C(COC/C3=C\c3ccc(Br)cc3)C(c3ccc(Br)cc3)N12` (centres undefined), the TGI in the experiment on COLO 205 colon, in the experiment with HOP-62 NSCLC, in the experiment with HOP-92 NSCLC, with IGROV1 ovarian, in the experiment on MDA-MB-435 and in the experiment on NCI/ADR-RES ovarian was above 100 µM throughout. Also, the results for the TGI in the experiment with RXF 393 renal, in the experiment on SNB-75 CNS and in the experiment with SR leukemia were above 100 µM, above 100 µM and 60.9 µM, respectively.

On to `C1=C\SS/C=C\SS/1`, for which the TGI in the experiment on COLO 205 colon was above 100 µM; with HOP-62 NSCLC, above 100 µM; in the experiment with HOP-92 NSCLC it was 97.3 µM; in the experiment on IGROV1 ovarian it was 62.5 µM; with MDA-MB-435 it was above 100 µM; in the experiment on NCI/ADR-RES ovarian it was above 100 µM. In addition, the TGI with RXF 393 renal was 88.1 µM; with SR leukemia, above 100 µM.
